Reference: US11291656B2, “Pramipexole transdermal delivery system and uses thereof” (TRANSWELL BIOTECH CO., LTD., priority 2016, dated 2022)
Converted amounts (≈) assume the structure as drawn. Like-named read-outs stand apart in the source and are kept apart here.

Columns and labels:
physchem = assay: physchem
Procedure: Numerous permeation enhancers were evaluated to identify suitable permeation enhancers, including permeation enhancers listed in Table 4 below that lists solubility of pramipexole in the respective permeation enhancers.

solubility (physchem; Brij 30, organic solvent or mixture): 111 mg/mL (≈ 526 mM)
solubility (physchem; Transcutal P, organic solvent or mixture): 122 mg/mL (≈ 577 mM)
solubility (physchem; Tween 80, organic solvent or mixture): 86.1 mg/mL (≈ 407 mM)
solubility (physchem; ethyl acetate, organic solvent or mixture): 34.3 mg/mL (≈ 162 mM)
solubility (physchem; isopropyl alcohol, organic solvent or mixture): 107 mg/mL (≈ 505 mM)
solubility (physchem; limonene, organic solvent or mixture): 5.34 mg/mL (≈ 25.3 mM)
solubility (physchem; methanol, organic solvent or mixture): 100 mg/mL (≈ 474 mM)
solubility (physchem; methyl laurate, oil or lipid): 7.07 mg/mL (≈ 33.5 mM)
solubility (physchem; octanol, organic solvent or mixture): 113 mg/mL (≈ 535 mM)
solubility (physchem; oleic acid, oil or lipid): 59 mg/mL (≈ 279 mM)
solubility (physchem; oleyl alcohol, oil or lipid): 113 mg/mL (≈ 535 mM)
solubility (physchem; propylene glycol (PG), organic solvent or mixture): 55.6 mg/mL (≈ 263 mM)
API solubility (in adhesive DURO-TAK 87-2054 (acrylate-vinylacetate, —COOH)): adequate solubility
API solubility (in adhesive DURO-TAK 87-2054 (acrylate-vinylacetate, —COOH), listed as API): 10%
API solubility (in adhesive DURO-TAK 87-2510 (Acrylic, —OH)): adequate solubility
API solubility (in adhesive DURO-TAK 87-2510 (Acrylic, —OH), listed as API): 5%
API solubility (in adhesive DURO-TAK 87-2979 (acrylate-vinylacetate, —COOOH/—OH)): adequate solubility
API solubility (in adhesive DURO-TAK 87-2979 (acrylate-vinylacetate, —COOOH/—OH), listed as API): 10%
API solubility (in adhesive DURO-TAK 87-4287 (acrylate-vinylacetate, —OH)): adequate solubility
API solubility (in adhesive DURO-TAK 87-4287 (acrylate-vinylacetate, —OH), listed as API): 8%
SMILES: CCCN[C@H]1CCc2nc(N)sc2C1 [Pramipexole]
